From patent US6495566B2, “Tetrahydroquinoline derivatives as glycine antagonists” (Smithkline Beecham Corporation, priority 1998, dated 2002)

system: not given; experiment: not given; details: not given

| melting point | Structure (SMILES) |
| --- | --- |
| > 130 °C | O=C(O)C1CC(=C2CCCN(c3ccccc3)C2=O)c2ccc(Cl)cc2N1 (racemic) [Example 23, (±)-7-chloro-4-(2-oxo-1-phenyl-3-piperidinylidene)-1,2,3,4-tetrahydro-2-quinolinecarboxylic acid] |

target: T1, strychnine insensitive glycine binding site associated with the NMDA receptor complex (Rattus norvegicus, UniProt P35439); experiment: affinity for the strychnine insensitive glycine binding site (procedure of Kishimoto H. et al); details: not given
T1 construct: from tissue
Method: Thus the ability to bind at the strychnine insensitive glycine binding site was determined using the procedure of Kishimoto H et al., J Neurochem 1981, 37, 1015-1024.
The affinity of the compound of the invention for the strychnine insensitive glycine binding site was determined using procedure of Kishimoto H. et al […].

| Structure (SMILES) | Ki |
| --- | --- |
| O=C(O)C1CC(=C2CCN(c3cccnc3)C2=O)c2ccc(Cl)cc2N1 (racemic) [Example 22, (±)-Sodium 7-chloro-4-(2-oxo-1-(pyridn-3yl)-pyrrolidin-3-ylidene)-1,2,3,4-tetrahydro-2-quinolinecarboxylate] | 12.6 nM |
| CC(=O)Nc1ccc(N2CCC(=C3CC(C(=O)O)Nc4cc(Cl)ccc43)C2=O)cc1 (racemic) [Example 25, (+/−)-7-chloro-4-(2-oxo-1-(4-acetylamino)phenyl-pyrrolidin-3-ylidene)-1,2,3,4-tetrahydro-2-quinolinecarboxylic acid] | 70.8 nM |
| O=C(O)C1CC(=C2CCN(c3ccccc3)C2=O)c2c(Cl)cc(Cl)cc2N1 (stereo not shown) [Example 30, Sodium 5,7-dichloro-4-(2-oxo-(1-phenyl)pyrrolidin-3-ylidene)-1,2,3,4-tetrahydro-2-quinoline carboxylate(enatiomer A)] | 20 nM |
| O=C(O)C1CC(=C2NC(=O)N(c3ccccc3)C2=O)c2ccc(Cl)cc2N1 (racemic) [Example 24, (±)-7-chloro-4-(2,5-dioxo-1-phenyl-imidazolidin-4-ylidene)-1,2,3,4-tetrahydro-2-quinolinecarboxylic acid] | 15.8 nM |

Now from value to compound:

| Ki | Structure (SMILES) |
| --- | --- |
| 12.6 nM | O=C(O)C1CC(C2=CCN(c3cccnc3)C2=O)c2ccc(Cl)cc2N1 (racemic) [Example 14, (±)-Sodium 7-chloro-4-(1-(3-pyridin)-Δ^3-pyrrolin-2-one-3yl)-1,2,3,4-tetrahydroquinoline-2-carboxylate] |
| 1.26 nM | CS(=O)(=O)Nc1ccc(N2CC=C(C3CC(C(=O)O)Nc4cc(Cl)ccc43)C2=O)cc1 (racemic) [Example 19, (+/−)7-chloro-4-(1-(4-methanesulfonylamino)-phenyl-1-Δ^3-pyrrolin-2-one-3yl)-1,2,3,4-tetrahydroquinoline-2-carboxylic acid] |
| 16.6 nM | CC(=O)Nc1ccc(N2CC=C(C3CC(C(=O)O)Nc4cc(Cl)ccc43)C2=O)cc1 (racemic) [Example 18, (+/−)-7-chloro-4-(1-(4-acetylamino)-phenyl-Δ^3-pyrrolin-2-one-3yl)-1,2,3,4-tetrahydroquinoline-2-carboxylic acid] |
| 15.8 nM | O=C(O)C1CC(C2=CCN(c3ccccc3)C2=O)c2c(Cl)cc(Cl)cc2N1 (racemic) [Example 16, (±)-Sodium 5,7-dichloro-4-(1-phenyl-Δ^3-pyrrolin-2-one-3yl)-1,2,3,4-tetrahydroquinoline-2-carboxylate] |
| 2 nM | O=C(O)C1CC(C2=CCN(c3ccccc3)C2=O)c2c(Cl)cc(Cl)cc2N1 (stereo not shown) [Example 29, Sodium, 5,7-Dichloro-4-(2-oxo-1-phenyl-Δ^3-pyrrolin-2-one-3-yl)-1,2,3,4-tetrahydro-quinoline-2-carboxylic acid; (enatiomer A)] |
| 18.6 nM | O=C(O)C1CC(C2=CCCN(c3ccccc3)C2=O)c2ccc(Cl)cc2N1 (racemic) [Example 15, (±)-Sodium 7-chloro-4-(1-phenyl-Δ^3-5,6-dihydro-pyridin-2-one-3yl)-1,2,3,4-tetrahydroquinoline-2-carboxylate] |

system: formalin-induced pain; experiment: formalin test in mouse (licking time of injected paw); format: in vivo; details: administered orally 1 hour before formalin injection
Method: The ability of compounds of the invention to inhibit pain in mouse has been assessed in the formalin test as described by Dubuisson and Dennis (Pain, 1977, 4:161-174). In this test 20 μl of 1% formalin was injected into the plantar surface of the mouse left hind paw. The amount of time, in seconds, the animals spent licking the injected paw for the first 5 minutes (early phase) and then from 20 to 60 minutes (late phase) after formalin was used as measurement of the intensity of pain. The compounds of the invention were administered orally 1 hour before formalin injection.

| Structure (SMILES) | ED50 (dose required to reduce the licking time by 50%) |
| --- | --- |
| O=C(O)C1CC(C2=CCN(c3ccccc3)C2=O)c2ccc(Cl)cc2N1 (single isomer, unassigned; (+)) [Example 17, (+)Sodium7-chloro-4-(1-phenyl-Δ^3pyrrolin-2-one-3yl)-1,2,3,4-tetrahydroquinoline-2-carboxylate] | 0.3 mg/kg po |
| O=C([O-])C1CC(=C2CCN(c3ccccc3)C2=O)c2ccc(Cl)cc2N1.[Na+] (single isomer, unassigned; (-)) [Example 21, (−)-Sodium 7-chloro-4-(2-oxo-1-phenyl-3-pyrrolidinylidene)-1,2,3,4-tetrahydro-2-quinolinecarboxylate] | 0.14 mg/kg po |
| O=C([O-])C1CC(C2=CCN(c3ccccc3)C2=O)c2ccc(Cl)cc2N1.[Na+] (single isomer, unassigned; (-)) [Example 2, (−)-Sodium 7-chloro-4-(1-phenyl-Δ^3-pyrrolin-2-one-3yl)-1,2,3,4-tetrahydroquinoline-2-carboxylate] | 0.03 mg/kg po |
